In patent publication US6787569B1, “Therapeutic guanidines” (Cambridge NeuroScience, Inc., priority 1994, dated 2004):
Counter-ions that a name gives are not always drawn.

Legend:
[1] = test system: depolarization-induced 3H-glutamate release from brain nerve terminals; assay: Inhibition of 3H-glutamate release, high [K+] depolarization, rapid superfusion of synaptosomes; format: biochemical; conditions: 3 μM compound, rat brain synaptosomes
[2] = test system: veratridine-induced 3H-glutamate release from brain nerve terminals (voltage-activated presynaptic Na channels); assay: Inhibition of veratridine-induced 3H-glutamate release, rapid superfusion of synaptosomes; format: biochemical, rat; conditions: 1 μM compound; 50 μM veratridine-induced release; rat brain synaptosomes
presynaptic Ca channels = assay: Inhibition of 45Ca uptake through presynaptic Ca channels in brain synaptosomes; format: biochemical, mammalian; conditions: high K+ depolarization-induced 45Ca uptake, read-out: IC50, block of ^45Ca uptake
Description: Compounds of the invention were tested to determine their ability to inhibit voltage-activated calcium channels in nerve terminals of mammalian brain. Said voltage-activated calcium channels directly control neurotransmitter release (see Nachsen, D. A. et al., J. Gen Physiol., 79:1065-1087 (1982)). The uptake of ^45Ca into brain synaptosomes was performed by an adaptation of the method of Nachsen and Blaustein (J. Physiol., 361:251-258 (1985)), as previously described [Goldin et al., PCT/US92/01050]. The principle of the method involves opening ion permeation through synaptosomal calcium channels by high K^+-induced depolarization of the synaptosomal preparation. The rapid component of ^45Ca uptake measured by this procedure is mediated by presynaptic calcium channels.
Briefly, synaptosomes are prepared by the method of Hajos (Brain Res., 93:485-489 (1975)). Freshly prepared synaptosomes (8 μl) were suspended In low potassium “LK” buffer (containing 3 mM KCl). Test compounds in 8 μl LK were added to synaptosomes to final concentrations ranging from 0.3 μM to 100 μM, and the mixture was preincubated for 5 minutes at room temperature. ^45Ca uptake was then initiated by adding isotope in either LK or in buffer (“HK”) containing high [potassium] (150 mM KCl). After 5 seconds, the ^45Ca uptake was stopped by adding 0.9 ml quench buffer (LK+10 mM EGTA). This solution was then filtered under vacuum and the filters washed with 15 ml of quench buffer.
Washed filters were subjected to scintillation spectrophotometry to determine the extent of ^45Ca uptake. Net depolarization-induced ^45Ca uptake was determined for each concentration of each compound tested, as the difference between ^45Ca uptake in HK and LK buffers. Results were plotted as % inhibition of depolarization-induced ^45Ca uptake vs. [compound] for each compound tested. Representative IC50 for inhibition of depolarization-induced ^45Ca uptake are presented below in the tables (2a-2d) below which together are identified as Table 2.

L-type Ca channels = assay: Inhibition of 45Ca uptake through L-type (dihydropyridine-sensitive) calcium channels in GH4C1 pituitary cells; format: cell-based; conditions: high K+ depolarization-induced 45Ca uptake, read-out: IC50, block of ^45Ca uptake
Description: Compounds of the invention representative of each of the major classes of agents claimed herein were tested to determine their ability to inhibit voltage-activated, dihydropyridine-sensitive L-type calcium channels in clonal GH4C1 pituitary cells. Said voltage-activated L-type calcium channels are found in cardiac muscle, vascular smooth muscle, and the cardiac Purkije cell conduction system. They are the sites of action of the major classes of Ca antagonists employed to treat hypertension, angina, cardiac arrhythmias, and related disorders. L-type Ca channels are also the sites of action of certain neuroprotective dihydropyridine Ca antagonists such as nimodipine.
The uptake of ^45Ca into GH4C1 cells was performed by an adaptation of the method of Tan, K. et al. (J. Biol. Chem., 259:418-426 (1984)). The principle of the method involves activating ion permeation through synaptosomal calcium channels by high K^+-induced depolarization of the synaptosomal preparation. The uptake of ^45Ca measured by this procedure is mediated by presynaptic L-type calcium channels, and is sensitive to dihydropyridine, phenylalkylamine, and benzothiazipine Ca antagonists at therapeutically relevant concentrations [Tashjian et al., ibid.]. The adaptation of the aforementioned method involves growing GH4C1 cells in 96-well culture plates, and is designed to provide a rapid and quantitative determination of the potency of various compounds in inhibiting ^45Ca uptake through L-type Ca channels.
GH4 cells, stored in liquid nitrogen, are suspended in 15 ml growth medium (Ham's F-10 medium plus 15% heat-inactivated horse serum and 2.5% heat-inactivated fetal bovine serum). The cells are centrifuged, resuspended, and then added to T-75 flasks containing 12-15 mls Growth Medium, and incubated at 37° C. for approximately 1 week. The cells are them removed from the T75 flask after dissociation from the walls of the flask by treatment for 5 minutes at 37° C. with 1 mg/ml Viocase. The Viocase is decanted, and the cells are resuspended in ˜200 ml of Growth Medium. The cells are then aliquoted (200 μl/well) into each well of several 96 well plates. The cells are then grown under the aforementioned conditions for 3-4 weeks, with replacement of Growth Medium occurring twice per week. Cells are fed growth medium 24 hours before they are employed for ^45Ca uptake determinations.
At the time of the assay, media Is aspirated from each 96-well plate using a manifold designed to allow 50 μL of liquid to remain in each well. Each plate is washed and aspirated twice with a low K^+ buffer solution “LKHBBS” (in mM 5 KCl, 145 NaCl, 10 Hepes, 1 MgCl2, […], 10 glucose, pH 7.4), 200 μl/well. Each plate is incubated for 10 minutes at 37° C., and aspirated as above. To each well of each plate, 50 μl of HBBS containing the drug to be tested in twice the final concentration is added. The plates are incubated for 10 minutes at room temperature. To each well of each plate, 50 μl of either of two solutions are added:
(a) LKHBBS containing 1 μCi of carrier-free ^45Ca, or
(b) HKHBBS (a high K^+ buffer containing 150 mM KCl and no NaCl, but otherwise identical to LKHBBS).
Each plate is then incubated for 5 minutes at room temperature, aspirated as above, and quenched with 200 μl/well of Quench Buffer (Ca-free LKHBBS containing 10 mM Tris-EGTA). Each plate is aspirated and rinsed with Quench Buffer a second time, then carefully aspirated to dryness. To each well of each plate 100 μl of High Safe II scintillation fluid is added. The plates are sealed, shaken, and subjected to scintillation spectrophotometry on a Microbeta 96-well Scintillation Counter (Wallac, Gaithersburg, Md., USA).
Net depolarization-induced ^45Ca uptake was determined for each concentration of each compound tested, as the difference between ^45Ca uptake in HKBBS and LK buffers. Results were plotted as % inhibition of depolarization-induced ^45Ca uptake vs. [compound] for each compound tested.

[3] = biological target: Type II neuronal voltage-activated sodium channels (Rattus norvegicus, UniProt P04775); assay: cell-based
[4] = test system: audiogenic seizures in DBA/2 mice; assay: In vivo anticonvulsant activity in the DBA/2 mouse model (audiogenic seizures); conditions: 30 minutes prior to auditory stimulus
Description: Compounds were tested for their effectiveness in preventing seizures in DBA/2 mice which have a unique sensitivity to auditory stimulation. Exposure to loud high-frequency sounds can trigger seizure activity in these animals. This sensitivity develops from postnatal day 12 and peaks around day 21 and slowly diminishes as the animals mature. The unusual response to auditory stimulation in this strain of mouse is believed to be due to a combination of early myelination (causing an unusually low excitatory threshold) and delayed development of inhibitory mechanisms. Glutamate, the predominant excitatory neurotransmitter, has been implicated in this response. Blockade of glutamate receptors of the NMDA and AMPA subtypes, prevents audiogenic seizures in these mice. Compounds that block the release of glutamate should similarly act to prevent seizure activity, and may be therapeutic in other neurologic disorders such as stroke, which also involves glutamate-mediated damage.
Mice were injected intraperitoneally with the compound specified in Table V below or with vehicle control, 30 minutes prior to being placed in a bell jar and turning on the auditory stimulus (12 KHz sine wave at 110-120 db). Administered doses are specified in Table V as milligram of compound per kilogram bodyweight of mouse. The auditory stimulus was left on for 60 seconds and mice reactions were timed and recorded.
Percentage inhibition was determined with reference to vehicle controls.

Type II neuronal voltage-activated sodium channels, sequence (P04775 whole entry): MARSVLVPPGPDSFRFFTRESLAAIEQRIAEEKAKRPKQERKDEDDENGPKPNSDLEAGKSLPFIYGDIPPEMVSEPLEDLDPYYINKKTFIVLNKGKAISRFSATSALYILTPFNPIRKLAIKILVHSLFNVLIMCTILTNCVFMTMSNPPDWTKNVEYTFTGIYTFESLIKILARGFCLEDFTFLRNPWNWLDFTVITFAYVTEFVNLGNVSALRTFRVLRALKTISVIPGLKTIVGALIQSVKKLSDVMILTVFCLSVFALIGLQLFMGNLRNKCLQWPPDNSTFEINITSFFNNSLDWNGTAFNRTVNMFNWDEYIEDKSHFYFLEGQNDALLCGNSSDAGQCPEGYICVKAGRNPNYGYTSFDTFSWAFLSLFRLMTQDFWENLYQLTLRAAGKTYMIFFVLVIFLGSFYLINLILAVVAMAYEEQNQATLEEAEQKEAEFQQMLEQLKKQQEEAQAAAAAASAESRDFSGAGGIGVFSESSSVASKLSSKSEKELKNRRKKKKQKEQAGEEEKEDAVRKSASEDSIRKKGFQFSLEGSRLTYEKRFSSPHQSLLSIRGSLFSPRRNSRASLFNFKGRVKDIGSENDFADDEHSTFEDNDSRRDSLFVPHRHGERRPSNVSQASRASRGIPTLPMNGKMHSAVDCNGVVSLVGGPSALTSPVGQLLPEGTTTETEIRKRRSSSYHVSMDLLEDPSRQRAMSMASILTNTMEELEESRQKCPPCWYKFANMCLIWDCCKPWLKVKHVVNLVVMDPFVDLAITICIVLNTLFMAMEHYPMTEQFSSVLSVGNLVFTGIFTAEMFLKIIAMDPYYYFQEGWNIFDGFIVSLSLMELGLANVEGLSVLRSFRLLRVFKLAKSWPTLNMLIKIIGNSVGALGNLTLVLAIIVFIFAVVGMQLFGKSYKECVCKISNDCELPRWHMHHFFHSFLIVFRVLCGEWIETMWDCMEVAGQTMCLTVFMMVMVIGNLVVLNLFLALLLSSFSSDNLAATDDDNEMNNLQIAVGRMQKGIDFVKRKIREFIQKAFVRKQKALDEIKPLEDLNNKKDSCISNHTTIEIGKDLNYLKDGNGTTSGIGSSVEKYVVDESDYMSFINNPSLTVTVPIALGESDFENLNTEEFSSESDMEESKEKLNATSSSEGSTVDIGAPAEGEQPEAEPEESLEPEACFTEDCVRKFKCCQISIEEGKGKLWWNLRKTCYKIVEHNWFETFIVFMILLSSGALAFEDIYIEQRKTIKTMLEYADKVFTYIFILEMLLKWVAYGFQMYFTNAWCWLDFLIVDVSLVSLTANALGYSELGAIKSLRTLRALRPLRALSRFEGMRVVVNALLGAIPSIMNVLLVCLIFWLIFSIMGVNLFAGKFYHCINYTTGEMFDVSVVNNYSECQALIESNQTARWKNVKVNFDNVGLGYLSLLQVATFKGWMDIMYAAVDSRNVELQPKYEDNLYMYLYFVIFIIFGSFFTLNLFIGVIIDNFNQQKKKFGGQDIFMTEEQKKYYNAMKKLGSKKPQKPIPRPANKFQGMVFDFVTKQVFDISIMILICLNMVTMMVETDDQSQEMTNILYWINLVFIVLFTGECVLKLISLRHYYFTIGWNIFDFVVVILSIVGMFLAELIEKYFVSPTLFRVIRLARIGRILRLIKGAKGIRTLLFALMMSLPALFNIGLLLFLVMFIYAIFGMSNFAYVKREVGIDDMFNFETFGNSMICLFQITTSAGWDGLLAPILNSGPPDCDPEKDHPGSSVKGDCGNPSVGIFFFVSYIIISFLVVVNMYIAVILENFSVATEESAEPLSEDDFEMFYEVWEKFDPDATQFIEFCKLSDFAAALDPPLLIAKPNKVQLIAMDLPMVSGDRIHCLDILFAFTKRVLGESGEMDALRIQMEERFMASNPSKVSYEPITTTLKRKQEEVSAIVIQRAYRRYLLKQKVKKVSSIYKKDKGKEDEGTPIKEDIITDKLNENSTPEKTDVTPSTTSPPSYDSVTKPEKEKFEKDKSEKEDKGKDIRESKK

## CCC(C)c1ccc(N(Cc2ccc(C(C)(C)C)cc2)C(=N)N)cc1 (centres unmarked) [Example 1, N-(4-sec-Butylphenyl)-N-(4-tert-butylbenzyl)guanidine.HCl]
[1]
  % Inhibition of ^3H-Glu Rel @ 3 μM: 61%
[2]
  % Inhibition of ^3H-Glu Rel @ 1 μM (*veratridine-induced glutamate release assay): 67* %
Presynaptic Ca channels
  IC50: 6.1 µM
L-type Ca channels
  IC50: 1.7 µM
[3]
  IC50: 0.8 µM
[4]; 10 mg/kg intraperitoneally
  Audiogenic Response % Inhib.: 54%
[4]; 20 mg/kg intraperitoneally
  Audiogenic Response % Inhib.: 80.5%
[4]; 40 mg/kg intraperitoneally
  Audiogenic Response % Inhib.: 91%
